#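 Compound exposure: 48 hours, 5 concentrations, 96-well plates. At the TGI there is no net growth.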
# How the values were obtained:
# Assay in all cases: growth of human tumour cells (NCI), 48 h
# NCI-H460 lung = system: NCI-H460 lung
# EKVX NSCLC = system: EKVX NSCLC
# UACC-257 melanoma = system: UACC-257 melanoma
# HCC-2998 colon = system: HCC-2998 colon
# SNB-75 CNS = system: SNB-75 CNS
# OVCAR-4 ovarian = system: OVCAR-4 ovarian
# SNB-19 CNS = system: SNB-19 CNS
# HOP-62 NSCLC = system: HOP-62 NSCLC
# HCT-116 colon = system: HCT-116 colon
# UO-31 renal = system: UO-31 renal
# SK-MEL-5 melanoma = system: SK-MEL-5 melanoma
# CAKI-1 renal = system: CAKI-1 renal
# SK-OV-3 ovarian = system: SK-OV-3 ovarian
# COLO 205 colon = system: COLO 205 colon
# NCI-H522 lung = system: NCI-H522 lung
# SF-295 CNS = system: SF-295 CNS
# DU-145 prostate = system: DU-145 prostate
# SK-MEL-28 melanoma = system: SK-MEL-28 melanoma
# NCI/ADR-RES ovarian = system: NCI/ADR-RES ovarian
# A498 renal = system: A498 renal
# MDA-N = system: MDA-N
# 786-0 renal = system: 786-0 renal
# HCT-15 colon = system: HCT-15 colon
# M14 melanoma = system: M14 melanoma
# PC-3 prostate = system: PC-3 prostate
# MALME-3M melanoma = system: MALME-3M melanoma
# BT-549 breast = system: BT-549 breast
# RXF 393 renal = system: RXF 393 renal
# U251 CNS = system: U251 CNS
# RPMI-8226 leukemia = system: RPMI-8226 leukemia
# MCF7 breast = system: MCF7 breast
# HOP-92 NSCLC = system: HOP-92 NSCLC
# SF-539 CNS = system: SF-539 CNS
# SK-MEL-2 melanoma = system: SK-MEL-2 melanoma
# ACHN renal = system: ACHN renal
# T-47D breast = system: T-47D breast
# SW-620 colon = system: SW-620 colon
# OVCAR-5 ovarian = system: OVCAR-5 ovarian
# LOX IMVI melanoma = system: LOX IMVI melanoma
# UACC-62 melanoma = system: UACC-62 melanoma
# TK-10 renal = system: TK-10 renal
# MOLT-4 leukemia = system: MOLT-4 leukemia
# NCI-H226 lung = system: NCI-H226 lung
# MDA-MB-231 breast = system: MDA-MB-231 breast
# OVCAR-8 ovarian = system: OVCAR-8 ovarian
# HS 578T breast = system: HS 578T breast
# A549 NSCLC = system: A549 NSCLC
# NCI-H23 lung = system: NCI-H23 lung
# MDA-MB-435 = system: MDA-MB-435
# K-562 leukemia = system: K-562 leukemia
# OVCAR-3 ovarian = system: OVCAR-3 ovarian
# KM12 colon = system: KM12 colon
# SF-268 CNS = system: SF-268 CNS
# CCRF-CEM leukemia = system: CCRF-CEM leukemia
# SR leukemia = system: SR leukemia
# SN12C renal = system: SN12C renal
# HT29 colon = system: HT29 colon
# IGROV1 ovarian = system: IGROV1 ovarian
# HL-60(TB) leukemia = system: HL-60(TB) leukemia
structure (smiles),measurement,setting,value
COC(=O)[C@H](Cc1ccccc1)NC(=O)NCCN(CCNC(=O)N[C@@H](Cc1ccccc1)C(=O)OC)C(=O)N[C@@H](Cc1ccccc1)C(=O)OC,TGI,NCI-H460 lung,34.8 µM
same,TGI,EKVX NSCLC,> 61.7 µM
same,TGI,UACC-257 melanoma,40.4 µM
same,TGI,HCC-2998 colon,34.8 µM
same,TGI,SNB-75 CNS,35.9 µM
same,TGI,OVCAR-4 ovarian,30 µM
same,TGI,SNB-19 CNS,48.2 µM
same,TGI,HOP-62 NSCLC,39.8 µM
same,TGI,HCT-116 colon,35.8 µM
same,TGI,UO-31 renal,45.5 µM
same,TGI,SK-MEL-5 melanoma,37.4 µM
same,TGI,CAKI-1 renal,> 63.6 µM
same,TGI,SK-OV-3 ovarian,> 60.8 µM
same,TGI,COLO 205 colon,40.9 µM
same,TGI,NCI-H522 lung,29.6 µM
same,TGI,SF-295 CNS,35.3 µM
same,TGI,DU-145 prostate,41.6 µM
same,TGI,SK-MEL-28 melanoma,35.4 µM
same,TGI,NCI/ADR-RES ovarian,> 100 µM
same,TGI,A498 renal,> 82.7 µM
same,TGI,MDA-N,32.9 µM
same,TGI,786-0 renal,34.1 µM
same,TGI,HCT-15 colon,> 100 µM
same,TGI,M14 melanoma,45.7 µM
same,TGI,PC-3 prostate,40.6 µM
same,TGI,MALME-3M melanoma,37.8 µM
same,TGI,BT-549 breast,39.2 µM
same,TGI,RXF 393 renal,31.9 µM
same,TGI,U251 CNS,41.2 µM
same,TGI,RPMI-8226 leukemia,46.3 µM
same,TGI,MCF7 breast,61.8 µM
same,TGI,HOP-92 NSCLC,70 µM
same,TGI,SF-539 CNS,47.1 µM
same,TGI,SK-MEL-2 melanoma,42.5 µM
same,TGI,ACHN renal,51.6 µM
same,TGI,T-47D breast,49.6 µM
same,TGI,SW-620 colon,43.8 µM
same,TGI,OVCAR-5 ovarian,35.2 µM
same,TGI,LOX IMVI melanoma,76.3 µM
same,TGI,UACC-62 melanoma,49.8 µM
same,TGI,TK-10 renal,37.3 µM
same,TGI,MOLT-4 leukemia,45 µM
same,TGI,NCI-H226 lung,34.6 µM
same,TGI,MDA-MB-231 breast,46.5 µM
same,TGI,OVCAR-8 ovarian,34.6 µM
same,TGI,HS 578T breast,45.3 µM
same,TGI,A549 NSCLC,54.3 µM
same,TGI,NCI-H23 lung,36.1 µM
same,TGI,MDA-MB-435,45 µM
same,TGI,K-562 leukemia,61 µM
same,TGI,OVCAR-3 ovarian,39.7 µM
same,TGI,KM12 colon,39.5 µM
same,TGI,SF-268 CNS,31.5 µM
CC(=O)OC1c2ccccc2CC2(OC(C)=O)c3ccccc3C12 (stereo not given),TGI,NCI-H460 lung,> 100 µM
same,TGI,EKVX NSCLC,> 100 µM
same,TGI,UACC-257 melanoma,> 100 µM
same,TGI,HCC-2998 colon,> 100 µM
same,TGI,SNB-75 CNS,> 100 µM
same,TGI,CCRF-CEM leukemia,> 100 µM
same,TGI,OVCAR-4 ovarian,> 100 µM
same,TGI,SNB-19 CNS,> 100 µM
same,TGI,HOP-62 NSCLC,> 100 µM
same,TGI,HCT-116 colon,> 100 µM
same,TGI,UO-31 renal,> 100 µM
same,TGI,CAKI-1 renal,> 100 µM
same,TGI,SR leukemia,> 100 µM
same,TGI,SK-OV-3 ovarian,> 100 µM
same,TGI,COLO 205 colon,> 100 µM
same,TGI,SF-295 CNS,> 100 µM
same,TGI,DU-145 prostate,> 100 µM
same,TGI,SK-MEL-28 melanoma,> 100 µM
same,TGI,NCI/ADR-RES ovarian,> 100 µM
same,TGI,A498 renal,> 100 µM
same,TGI,MDA-N,> 100 µM
same,TGI,786-0 renal,> 100 µM
same,TGI,HCT-15 colon,> 100 µM
same,TGI,M14 melanoma,> 100 µM
same,TGI,PC-3 prostate,> 100 µM
same,TGI,MALME-3M melanoma,> 100 µM
same,TGI,RXF 393 renal,> 100 µM
same,TGI,U251 CNS,> 100 µM
same,TGI,RPMI-8226 leukemia,> 100 µM
same,TGI,MCF7 breast,> 100 µM
same,TGI,SN12C renal,> 100 µM
same,TGI,HOP-92 NSCLC,> 100 µM
same,TGI,SF-539 CNS,> 100 µM
same,TGI,SK-MEL-2 melanoma,> 100 µM
same,TGI,ACHN renal,> 100 µM
same,TGI,T-47D breast,> 100 µM
same,TGI,SW-620 colon,> 100 µM
same,TGI,OVCAR-5 ovarian,> 100 µM
same,TGI,LOX IMVI melanoma,> 100 µM
same,TGI,UACC-62 melanoma,> 100 µM
same,TGI,TK-10 renal,> 100 µM
same,TGI,MOLT-4 leukemia,> 100 µM
same,TGI,NCI-H226 lung,> 100 µM
same,TGI,MDA-MB-231 breast,> 100 µM
same,TGI,OVCAR-8 ovarian,> 100 µM
same,TGI,HT29 colon,> 100 µM
same,TGI,IGROV1 ovarian,> 100 µM
same,TGI,HS 578T breast,> 100 µM
same,TGI,A549 NSCLC,> 100 µM
same,TGI,NCI-H23 lung,> 100 µM
same,TGI,MDA-MB-435,> 100 µM
same,TGI,K-562 leukemia,> 100 µM
same,TGI,OVCAR-3 ovarian,> 100 µM
same,TGI,KM12 colon,> 100 µM
same,TGI,SF-268 CNS,> 100 µM
Nc1ncnc2c1ccn2C1OC2COP(=O)(O)OC2C1O (stereo not given),TGI,NCI-H460 lung,12.9 µM
same,TGI,EKVX NSCLC,57.7 µM
same,TGI,UACC-257 melanoma,9.11 µM
same,TGI,HCC-2998 colon,9.45 µM
same,TGI,CCRF-CEM leukemia,20.2 µM
same,TGI,OVCAR-4 ovarian,9.6 µM
same,TGI,SNB-19 CNS,> 75.9 µM
same,TGI,HOP-62 NSCLC,11.2 µM
same,TGI,HCT-116 colon,10.4 µM
same,TGI,UO-31 renal,> 100 µM
same,TGI,SK-MEL-5 melanoma,1.59 µM
same,TGI,SR leukemia,25.6 µM
same,TGI,SK-OV-3 ovarian,24.5 µM
same,TGI,COLO 205 colon,3.99 µM
same,TGI,NCI-H522 lung,1.07 µM
same,TGI,SF-295 CNS,29.5 µM
same,TGI,DU-145 prostate,> 100 µM
same,TGI,SK-MEL-28 melanoma,14.2 µM
same,TGI,NCI/ADR-RES ovarian,> 31.8 µM
same,TGI,A498 renal,28.2 µM
same,TGI,MDA-N,11.1 µM
same,TGI,786-0 renal,> 20.9 µM
same,TGI,HCT-15 colon,3.11 µM
same,TGI,M14 melanoma,1.54 µM
same,TGI,PC-3 prostate,3.07 µM
same,TGI,MALME-3M melanoma,1.41 µM
same,TGI,BT-549 breast,24 µM
same,TGI,RXF 393 renal,5.02 µM
same,TGI,U251 CNS,> 100 µM
same,TGI,RPMI-8226 leukemia,> 100 µM
same,TGI,MCF7 breast,> 100 µM
same,TGI,SN12C renal,12.7 µM
same,TGI,HOP-92 NSCLC,7.41 µM
same,TGI,SF-539 CNS,20.2 µM
same,TGI,SK-MEL-2 melanoma,5.52 µM
same,TGI,ACHN renal,14.2 µM
same,TGI,T-47D breast,55.3 µM
same,TGI,HL-60(TB) leukemia,> 23.2 µM
same,TGI,SW-620 colon,> 44.5 µM
same,TGI,OVCAR-5 ovarian,46.9 µM
same,TGI,LOX IMVI melanoma,1.34 µM
same,TGI,UACC-62 melanoma,1.45 µM
same,TGI,TK-10 renal,4.8 µM
same,TGI,MOLT-4 leukemia,10.9 µM
same,TGI,NCI-H226 lung,28.5 µM
same,TGI,MDA-MB-231 breast,12.2 µM
same,TGI,OVCAR-8 ovarian,7.94 µM
same,TGI,HT29 colon,11.7 µM
same,TGI,IGROV1 ovarian,> 31 µM
same,TGI,HS 578T breast,> 31 µM
same,TGI,A549 NSCLC,12.8 µM
same,TGI,NCI-H23 lung,9.37 µM
same,TGI,MDA-MB-435,2.31 µM
same,TGI,K-562 leukemia,19 µM
same,TGI,OVCAR-3 ovarian,> 96.3 µM
same,TGI,KM12 colon,16.5 µM
same,TGI,SF-268 CNS,8.06 µM
